Data reported in patent publication US5686454A, “Camphorcarbonyl” (Merck & Co., Inc., priority 1996, dated 1997).

target: T1, uterine OT receptors (Rattus norvegicus, UniProt P70536); assay: Radioligand binding: competition of [^3 H]oxytocin binding to rat uterine membranes; settings: 1 nM [^3 H]OT, rat uterus membranes, 60 minutes, 22° C., pH 7.4; read-out: IC50
T1 construct: crude membrane preparation of uteri; from tissue; host or cells: uterus of DES-treated rats, crude membranes
T1 sequence (P70536 1-388): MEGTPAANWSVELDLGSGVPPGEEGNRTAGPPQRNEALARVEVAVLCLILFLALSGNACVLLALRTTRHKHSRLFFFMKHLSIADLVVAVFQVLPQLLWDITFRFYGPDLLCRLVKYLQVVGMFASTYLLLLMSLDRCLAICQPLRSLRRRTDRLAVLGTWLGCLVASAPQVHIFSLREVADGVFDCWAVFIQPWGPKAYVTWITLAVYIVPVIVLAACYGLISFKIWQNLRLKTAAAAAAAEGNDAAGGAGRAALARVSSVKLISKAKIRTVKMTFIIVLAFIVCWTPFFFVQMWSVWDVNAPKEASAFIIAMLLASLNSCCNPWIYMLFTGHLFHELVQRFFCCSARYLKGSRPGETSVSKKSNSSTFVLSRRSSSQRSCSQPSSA
From the text: RADIOGLIGAND BINDING ASSAYS
The high affinity binding of [^3 H]

Row | SMILES | IC50 [nM]
1 | Cc1ccccc1N1CCN(S(=O)(=O)CC23CCC(CC2O)C3(C)C)C(C)C1 (stereo not drawn) [Example 68, 1-((7,7-Dimethyl-2-exo-hydroxy-bicyclo(2.2.1)heptan-1-yl)methanesulfonyl)-4-(2-methylphenyl)-2-methyl-piperazine] | 460
2 | Cc1ccccc1N1CCN(S(=O)(=O)CC23CCC(CC2C(=O)NCCc2c[nH]cn2)C3(C)C)CC1 (stereo not drawn) [Example 61, 1-((7,7-Dimethyl-2-endo-(4-imidazolyl)ethylamino-carbonyl-bicyclo-(2.2.1)heptan-1-yl)methanesulfonyl)-4-(2-methylphenyl)piperazine] | 35
3 | Cc1ccccc1N1CCN(C(=O)C2C3CCC(C)(C2NC(=O)C(NC(=O)OC(C)(C)C)C(C)O)C3(C)C)CC1 (stereo not drawn) [Example 19, 1-(2-methylphenyl)-4-[(4,7,7-trimethyl-3-(2-(t-butoxycarbonyl)amino-3-hydroxy)butyrylaminobicyclo[2.2.1]hept-2-yl)carbonyl]-piperazine] | 160
4 | Cc1ccccc1N1CCN(S(=O)(=O)CC23CCC(CC2NC(=O)[C@H](CCS(C)(=O)=O)NC(=O)Cc2c[nH]cn2)C3(C)C)CC1 (stereo partly drawn) [Example 73, 1-((7,7-Dimethyl-2-endo-(2S-(imidazol-4-ylacetyl-amino)-4-(methylsulfonyl)butyramido)-bicyclo(2.2.1)-heptan-1-yl)methanesulfonyl)-4-(2-methylphenyl)-piperazine] | 5.4
5 | Cc1ccccc1N1CCN(C(=O)C2C3CCC(C)(C2NC(=O)Cc2c[nH]cn2)C3(C)C)CC1 (stereo not drawn) [Example 13, 1-(2-Methylphenyl)-4-[(4,7,7-trimethyl-3-(2-(4-imidazolyl))acetylaminobicyclo[2.21]hept-2-yl)carbonyl]-piperazine] | 33.3
6 | Cc1ccccc1N1CCN(S(=O)(=O)C[C@]23CC[C@H](C[C@]2(O)C(C)CNC(=O)Cc2c[nH]cn2)C3(C)C)CC1 (stereo partly drawn) [Example 43, 1-((7,7-Dimethyl-2-exo-hydroxy-2-endo-2-(1-(4(5)-imidazolylacetyl)amino)propyl-bicyclo(2.2.1)heptan-1-yl)methanesulfonyl)-4-(2-methylphenyl)piperazine] | 8
7 | Cc1ccccc1N1CCN(S(=O)(=O)C[C@]23CC[C@H](C[C@]2(O)C(C)C#N)C3(C)C)CC1 (stereo partly drawn) [Example 38, 1-((7,7-Dimethyl-2-exo-hydroxy-2-endo-(1-cyano)ethyl-bicyclo(2.2.1)heptan-1-yl)methanesulfonyl)-4-(2-methylphenyl)piperazine] | 150
8 | Cc1ccccc1N1CCN(C(=O)C2C3CCC(C)(C2NC(=O)C(N)C(C)O)C3(C)C)CC1 (stereo not drawn) [Example 20, 1-(2-methylphenyl)-4-[(4,7,7-trimethyl-3-(2-amino-3-hydroxy)butyrylaminobicyclo[2.2.1]hept-2-yl)carbonyl]-piperazine] | 3.6
9 | Cc1ccccc1N1CCN(C(=O)C2C3CCC(C)(C2O)C3(C)C)CC1 (stereo not drawn) [Example 2, 1-[(3-hydroxy-4,7,7-trimethylbicyclo[2.2.1]hept-2-yl)carbonyl]-4-(2-methylphenyl)-piperazine] | 800
10 | Cc1ccccc1N1CCN(C(=O)C2C(=NO)C3(C)CCC2C3(C)C)CC1 (stereo not drawn) [Example 6, 1-(2-methylphenyl)-4-[(4,7,7-trimethyl-3-hydroxyimino-bicyclo[2.2.1]-hept-2-endo-yl)carbonyl]-piperazine] | 82
11 | Cc1ccccc1N1CCN(S(=O)(=O)CC23CCC(CC2NC(=O)Cc2c[nH]cn2)C3(C)C)CC1 (stereo not drawn) [Example 79] | 26
12 | Cc1ccccc1N1CCN(S(=O)(=O)C[C@]23CC[C@H](C[C@@H]2NC(=O)C(C)c2c[nH]cn2)C3(C)C)CC1 (stereo partly drawn) [Example 80, 1-((7,7-Dimethyl-2-endo-(2-(4-imidazolyl)propanoyl)-amino-bicyclo(2.2.1)heptan-1-yl)methanesulfonyl)-4-(2-methylphenyl)piperazine] | 12
13 | CC(=O)NC1C(C(=O)N2CCN(c3ccccc3C)CC2)C2CCC1(C)C2(C)C (stereo not drawn) [Example 14, 1-(2-methylphenyl)-4-[(4,7,7-trimethyl-3-acetylaminobicyclo[2.2.1]hept-2-yl)carbonyl]-piperazine] | 55
14 | Cc1ccccc1N1CCN(S(=O)(=O)CC23CCC(CC2(O)C(C)CNC(=O)[C@@H]2CCCN2CC(=O)O)C3(C)C)CC1 (stereo partly drawn) [Example 89] | 14
15 | Cc1ccccc1N1CCN(S(=O)(=O)CC23CCC(CC2(O)C(C)CNC(=O)C2CCNCC2)C3(C)C)CC1 (stereo not drawn) [Example 90] | 30

Continued, values first:

Row | IC50 [nM] | SMILES
16 | 54 | COC(=O)CCN(CCC(=O)OC)CC(C)[C@@]1(O)C[C@H]2CC[C@]1(CS(=O)(=O)N1CCN(c3ccccc3C)CC1)C2(C)C (stereo partly drawn) [Example 47, 1-((7,7-dimethyl-2-exo-hydroxy-2-endo-2-(1-bis-(2-methoxycarbonylethyl)amino)propyl-bicyclo(2.2.1)heptan-1-yl)methanesulfonyl)-4-(2-methylphenyl)piperazine]
17 | 100 | CCOC(=O)CCCN1CCC[C@H]1C(=O)NCC(C)[C@@]1(O)C[C@H]2CC[C@]1(CS(=O)(=O)N1CCN(c3ccccc3C)CC1)C2(C)C (stereo partly drawn) [Example 41, 1-((7,7-Dimethyl-2-exo-hydroxy-2-endo-2-(1-(1-N-(ethoxycarbonylpropyl)prolyl)amino)propyl-bicyclo(2.2.1)heptan-1-yl)methanesulfonyl)-4-(2-methylphenyl)piperazine]
18 | 38 | CCOC(=O)CN1CCCC(C(=O)NCC(C)C2(O)CC3CCC2(CS(=O)(=O)N2CCN(c4ccccc4C)CC2)C3(C)C)C1 (stereo not drawn) [Example 86, 1-((7,7-Dimethyl-2-exo-hydroxy-2-endo-2-(1-(3-(1-ethoxycarbonylmethyl)piperidinylcar-bonyl)amino)propyl-bicyclo(2.2.1)heptan-1-yl)methanesulfonyl)-4-(2-methylphenyl)piperazine]
19 | 1.2 | Cc1ccccc1N1CCN(S(=O)(=O)CC23CCC(CC2NC(=O)[C@@H](N)CCS(C)(=O)=O)C3(C)C)CC1 (stereo partly drawn) [Example 72, 1-((7,7-Dimethyl-2-endo-(2S-amino-4-(methylsulfonyl)-butyramido)bicyclo(2.2.1)heptan-1-yl)methanesulfonyl)-4-(2-methylphenyl)piperazine]
20 | 9.2 | Cc1ccccc1N1CCN(S(=O)(=O)CC23CCC(CC2N(C)C(=O)[C@@H](N)CCS(C)(=O)=O)C3(C)C)CC1 (stereo partly drawn) [Example 77, 1-((7,7-dimethyl-2-endo-methyl(2S-amino-4-(methylsulfonyl)butanoyl)amino-bicyclo(2.2.1)heptan-1-yl)methanesulfonyl)-4-(2-methylphenyl)-piperazine]
21 | 1000 | Cc1ccccc1N1CCN(S(=O)(=O)C[C@]23CC[C@H](CC2=O)C3(C)C)CC1 [Example 37, 1-((7,7-Dimethyl-2-oxo-bicyclo(2.2.1)heptan-1-yl)methanesulfonyl)-4-(2-methylphenyl)piperazine]
22 | 7.7 | Cc1ccccc1N1CCN(S(=O)(=O)CC23CCC(CC2NC(=O)[C@H](CCS(C)(=O)=O)NC(=O)OC(C)(C)C)C3(C)C)CC1 (stereo partly drawn) [Example 71, 1-((7,7-Dimethyl-2-endo-(2S-(tert-butyloxycarbonyl-amino)-4-(methylsulfonyl)-butyramido)-bicyclo(2.2.1)-heptan-1-yl)methanesulfonyl)-4-(2-methylphenyl)-piperazine]

same assay, conditions: read-out: % inhibition at 100 nM

Row | inhibition at 0.1 µM [%] | SMILES
23 | 35 | Cc1ccccc1N1CCN(S(=O)(=O)CC23CCC(CC2(O)C(C)CNCc2ccncc2)C3(C)C)CC1 (stereo not drawn) [Example 63, 1-((7,7-Dimethyl-2-exo-hydroxy-2-endo-2-(1-(4-pyridinyl)methylamino)-propyl-bicyclo(2.2.1)heptan-1-yl)methanesulfonyl)-4-(2-methylphenyl)-piperazine]
24 | 66 | Cc1ccccc1N1CCN(S(=O)(=O)CC23CCC(CC2(O)C(C)CNC(=O)C2CCCN(CCC(=O)O)C2)C3(C)C)CC1 (stereo not drawn) [Example 85]

same assay, conditions: read-out: % inhibition at 1000 nM

Row | SMILES | inhibition at 1 µM [%]
25 | Cc1ccccc1N1CCN(S(=O)(=O)CC23CCC(CC2=O)C3(C)C)C(C)C1=O (stereo not drawn) [Example 67, 1-((7,7-Dimethyl-2-oxo-bicyclo(2.2.1)heptan-1-yl)-methanesulfonyl)-4-(2-methylphenyl)-2-methyl-3-piperazinone] | 37
26 | Cc1ccccc1N1CCN(C(=O)C2(CC#N)C(=O)C3(C)CCC2C3(C)C)CC1 (stereo not drawn) [Example 5] | 27

Next, values leading:

Row | inhibition at 1 µM [%] | SMILES
27 | 31 | Cc1ccccc1N1CCN(S(=O)(=O)CC23CCC(CC24CO4)C3(C)C)CC1 (single isomer, unassigned) [Example 54, 1-((7,7-Dimethyl-2-spiro-epoxy-bicyclo(2.2.1)heptan-1-yl)methanesulfonyl)-4-(2-methylphenyl)piperazine]
28 | 78 | Cc1ccccc1N1CCN(S(=O)(=O)C[C@]23CC[C@H](C=C2C(=O)O)C3(C)C)CC1 [Example 57, 1-((7,7-Dimethyl-2-carboxy-bicyclo(2.2.1)hept-2-en-1-yl)methanesulfonyl)-4-(2-methylphenyl)piperazine]
29 | 78 | CCOC(=O)C(CC=C1CC2CCC1(CS(=O)(=O)N1CCN(c3ccccc3C)CC1)C2(C)C)(NC(C)=O)C(=O)OCC (stereo not drawn) [Example 64, 1-((7,7-Dimethyl-2-(3-acetamido-3,3'-di(ethoxycarbonyl))propylidine-bicyclo(2.2.1)heptan-1-yl)methanesulfonyl)-4-(2-methylphenyl)piperazine]
30 | 64 | Cc1ccccc1N1CCN(S(=O)(=O)C[C@]23CC[C@H](CC2=CCN=[N+]=[N-])C3(C)C)CC1 [Example 51, 1-((7,7-dimethyl-2-(2-azido)ethylidine-bicyclo-(2.2.1)heptan-1-yl)methanesulfonyl)-4-(2-methyl-phenyl)piperazine]
